Patent publication US20190098891A1, “Compositions and Methods for Biopreservation” (Augusta University Research Institute, Inc., priority 2017, published 2019)

Test system: mouse M II oocytes
Test: Post-rehydration survival of mouse M II oocytes after fast or slow desiccation
Assay type: cell-based
From the text: A phosphate-buffered saline (PBS) containing 0.4% bovine serum albumin (BSA) was used as a starting desiccation medium based on its simple composition that was preferable to not complicate the experimental outcome due to components of a complex desiccation medium. Further, the objective of these experiments was to test the effect of the desiccation duration without bringing specimen into a glassy state.
Slow and fast desiccation are can be achieved by adjusting several variables (e.g., temperature and flow rate of dry nitrogen gas, temperature of stage warmer, droplet size, etc.). Slow and fast desiccation of M II oocytes were achieved by changing the flow rate of dry nitrogen gas using a flowmeter (Gilmont Instruments) while performing the experiments at ambient temperature.
The fast protocol required approximately 9 minutes to desiccate a sample to a residual moisture content of 5% while the same residual moisture content was obtained in ca. 20 minutes in the case of slow desiccation. […]
The residual moisture content (% RM) of samples was determined gravimetrically using the following formula: […]

OC[C@H]1O[C@H](O[C@H]2O[C@H](CO)[C@@H](O)[C@H](O)[C@H]2O)[C@H](O)[C@@H](O)[C@@H]1O [trehalose]
desiccation tolerance: improves the desiccation tolerance
